The values that follow come from paper PMC7822819, “Discovery of a new class of integrin antibodies for fibrosis” (Scientific Reports, 2021).

Each structure is given as a SMILES string. Where “and” joins values, the source holds several entries; their conditions need not be identical. Equal values may be shown once. Read-outs that look alike come from different tables or passages of the source.

Data set [1] deals with normal human lung fibroblasts. Kind of data set: TGFβ-induced αSMA high-content imaging. The class given is cell-based. To be noted: 10 μM, 30 min pre-treatment, TGFβ 5 ng/mL, 48 h. On the procedure:
(§1) Normal human lung fibroblasts (Lonza) and Primary Human IPF Lung Parenchymal Fibroblasts (Donor2) (BioIVT, #PCR-70-0214) were incubated at 37 °C and 5% CO2. To induce fibrotic response in primary cells, a final concentration of 5 ng/ml of recombinant human TGFβ1 (BioLegend, #580702) was added to the culture media and treated for 24 ~ 48 h. Anti-TGFβ neutralizing antibody (1D11) and the isotype control mouse IgG1 were from BioXcell. SB-525334 and bleomycin were from Sigma. MK-0429 was synthesized by Merck & Co., Inc., Kenilworth, NJ, USA. CHOK1-integrin stable lines were cultured in DMEM/F12, Glutamax (Gibco #10565018), 10% FBS (Gibco 310091148), 1 × Pen/Strep (Gibco 315140-148), and 6 ug/mL Puromycin (Gibco #A1113803).
(§2) Primary cells (passage 3–5) were grown on Cell carrier Ultra, col1 coated 96-well plates (Perkin Elmer, #6055700) at a density of 25,000 cells/well. Once the cells adhere, they were starved in serum free media for 24 h followed by addition of treatments i.e. 5 ng/mL TGFβ (Biolegend #580702) ± inhibitors. Cells were pre-treated with inhibitors for 30 min prior to the addition of TGFβ stimulation. 48hours post treatment, the cells were fixed in 4% methanol free paraformaldehyde (ThermoFisher Scientific #28908) for 20 min at room temperature and incubated with anti-alpha smooth muscle Actin antibody (Abcam #ab7817) at 1:4000 overnight at 4 °C. […]

The test system of data set [2] is IPF patient lung fibroblasts. Kind of data set: TGFβ-induced αSMA high-content imaging. The class given is cell-based, human. The conditions noted are these: even at 10 μM. Here is the method:
as §1, §2

Data set [3] can be described thus: Plasma total drug concentration in bleomycin model (LC-MS/MS). It counts as in vivo, mouse. The conditions noted are these: 2 h after last dose, Day 19; MK-0429 200 mpk minipump, Nintedanib 60 mpk po qd; mean ± SE. Here is the method:
Mice at 12 ~ 13 weeks of age were randomized to 5 groups: saline, bleomycin instillation with vehicle (osmotic minipump), bleomycin instillation with MK-0429 treatment, bleomycin instillation with vehicle oral treatment, and bleomycin instillation with Nintedanib treatment. All mice were anaesthetized with isoflurane. Bleomycin was dosed by intra-tracheal (i.t) instillation in a volume of 50 µl, at a dose of 1unit /kg body weight. After instillation, mice were kept in a heads-up position for 2–5 min before putting into cages. MK-0429 (200 mg/kg) was administered by Osmotic pump from day 5 to day 14 and Nintedanib (60 mg/kg) was administered, p.o., q.d., for 14 days. Vehicle was dosed orally at 10 am daily from the day 5 to the end of the studies and dosing volume was 10 mL/kg. For plasma PK analysis, an aliquot of 50 μL plasma was spiked into a 96-well plate, and 200 μL of acetonitrile containing internal standard were added for protein precipitation. The mixture was vortexed, centrifuged at 4000 rpm for 20 min. 50 μL of supernatant were mixed with 200 μl H2O and the final solution were injected for LC–MS/MS analysis. The methods for quantitative analysis were developed on UPLC (Waters) chromatographic system equipped with an API4000 QTrap mass spectrometer (Applied Biosystems, Concord, Ontario, Canada). […]

The subject of data set [4] is diabetic nephropathy model. Also noted: method as in PMID 28971604. The conditions noted are these: cited from earlier work.
A further data set concerns the target human αvβ8 (Homo sapiens, UniProt P06756+P26012). Nature of the data set: AlphaLISA integrin-ligand binding assay. The arrangement: hαV 1 992; hβ8 1 684; made in house; host or cells: Expi293. It counts as biochemical. On the procedure: In the AlphaLISA integrin assays, we used a HEPES based buffer (25 mM HEPES pH 7.4, 137 mM NaCl, 1 mM MgCl2, 1 mM MnCl2, 2 mM CaCl2, 2.7 mM KCl, and 0.05% Tween-20). Optimal assay conditions were determined with a titration of the reagents for signal noise ratio (S/N), linear range, etc. For the respective integrins, we used the final concentrations described in Supplemental Table S3. Briefly, the testing antibody (8 μL) was added as a 4x (of Final testing concentration) solution in the HEPES buffer described previously into a 384w AlphaPlate (Perkin Elmer #6005350). Then the integrin and ligand were added sequentially as 8x (4 μL each). Plates were sealed and incubated at room temperature for 2 h. Then 4 × acceptor bead solution (8 μL) was added, and the plates were resealed and incubated at RT for 1 h. Finally, 4 × (8 μL) donor beads solution was added in a darkened room and incubated for 45 min at room temperature. Plates were read on the Envision (Perkin Elmer) in AlphaScreen mode within 3 h of donor bead addition.
Supplemental Table S3. integrin AlphaLIS A assay reagents and conditions Human A l phal i sa Inte gri n A ssays: Fi nal Condi ti ons […]
( batch de pe nde nt) anti body A l phaLi sa A cce ptor havb1 1. 4 nM 1. 0 nMα - Fi brone cti n human Fi brone cti n n/a A cce ptor be ads/ Pe rki n 10. 0 ug/ m 10. 0 ug/ m […]
havb3 3. 0 nM 10. […]

human αvβ8, sequence (P06756 31-992): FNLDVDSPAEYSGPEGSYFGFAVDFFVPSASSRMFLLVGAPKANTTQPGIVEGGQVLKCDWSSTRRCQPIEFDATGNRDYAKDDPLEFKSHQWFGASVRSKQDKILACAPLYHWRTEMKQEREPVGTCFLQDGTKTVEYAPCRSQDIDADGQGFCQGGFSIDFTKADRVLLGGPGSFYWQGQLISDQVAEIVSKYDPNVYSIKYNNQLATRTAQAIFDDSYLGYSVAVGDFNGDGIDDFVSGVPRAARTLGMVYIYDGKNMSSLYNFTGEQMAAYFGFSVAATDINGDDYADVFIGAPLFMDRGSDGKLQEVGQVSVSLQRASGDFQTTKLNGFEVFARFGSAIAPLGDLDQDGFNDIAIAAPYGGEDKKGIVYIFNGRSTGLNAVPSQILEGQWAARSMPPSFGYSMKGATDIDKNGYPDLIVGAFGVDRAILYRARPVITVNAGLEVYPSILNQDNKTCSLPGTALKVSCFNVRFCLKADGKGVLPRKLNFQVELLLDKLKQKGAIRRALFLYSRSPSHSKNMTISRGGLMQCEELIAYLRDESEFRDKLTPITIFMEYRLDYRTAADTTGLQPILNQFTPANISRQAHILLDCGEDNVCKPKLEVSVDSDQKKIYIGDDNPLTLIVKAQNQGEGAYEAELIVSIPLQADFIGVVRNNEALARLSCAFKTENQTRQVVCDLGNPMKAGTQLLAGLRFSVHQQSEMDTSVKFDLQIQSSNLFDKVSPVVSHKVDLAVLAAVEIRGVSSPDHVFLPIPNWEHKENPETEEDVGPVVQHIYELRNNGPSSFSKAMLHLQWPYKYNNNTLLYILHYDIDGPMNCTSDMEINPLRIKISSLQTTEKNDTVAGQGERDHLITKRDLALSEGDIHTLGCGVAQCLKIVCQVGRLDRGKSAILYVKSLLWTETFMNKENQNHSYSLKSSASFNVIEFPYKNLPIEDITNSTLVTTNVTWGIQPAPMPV
human αvβ8, sequence (P26012 43-684): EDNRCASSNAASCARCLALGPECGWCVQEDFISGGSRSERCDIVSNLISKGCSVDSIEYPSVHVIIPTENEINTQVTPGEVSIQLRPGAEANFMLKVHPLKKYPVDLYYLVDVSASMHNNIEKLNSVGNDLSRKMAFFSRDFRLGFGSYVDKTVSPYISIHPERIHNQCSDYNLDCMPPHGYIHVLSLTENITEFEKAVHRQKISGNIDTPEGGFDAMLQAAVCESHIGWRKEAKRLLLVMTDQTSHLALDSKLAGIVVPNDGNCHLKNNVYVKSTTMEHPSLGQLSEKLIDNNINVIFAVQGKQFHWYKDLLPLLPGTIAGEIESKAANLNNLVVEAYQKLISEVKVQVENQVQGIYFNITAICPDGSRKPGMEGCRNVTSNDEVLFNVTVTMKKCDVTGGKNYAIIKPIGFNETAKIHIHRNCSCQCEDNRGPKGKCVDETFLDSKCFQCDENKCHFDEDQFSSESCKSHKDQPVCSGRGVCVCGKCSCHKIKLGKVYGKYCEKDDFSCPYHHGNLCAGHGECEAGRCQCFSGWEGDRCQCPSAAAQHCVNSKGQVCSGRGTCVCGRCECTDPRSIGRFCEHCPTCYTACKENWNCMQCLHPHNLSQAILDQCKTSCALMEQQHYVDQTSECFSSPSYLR

For `COc1ccc(C(CC(=O)O)N2CCN(CCCc3ccc4c(n3)NCCC4)C2=O)cn1` (stereo not shown) [MK-0429], in data set [1], the “αSMA intensity and percentage of stimulated cells following TGFβ treatment” value is on record as “significantly reduced”. The “Inhibition of αSMA induction” value in data set [2] is reported as “minimal activity”. Moreover, the “Mean plasma total drug concentration” value in data set [3] is 3701 ng/mL and 3701 ± 902 ng/mL. Moreover, in data set [4], the Proteinuria result was “reduces” and the Renal fibrosis entry is “reduces”. Besides, the IC50 at human αvβ8 (Fig. 3D, assay optimisation, read-out: IC50 human αvβ8 AlphaLISA) was 58.3 nM. For the same compound, the IC50 on human αvβ8 (Fig. 4B, read-out: IC50 Human integrin AlphaLISA assays: hαvβ8) was found to be 3.1 nM.
